# Test results as given in patent publication US9949479B2 (priority 2015, dated 2018).
# “And” between values parts separate entries of the source, which are not always exact repeats. Identical values can stand only once. Like-named read-outs stand apart in the source and are kept apart here.
# Key:
# leaf blight [1] = format: in vivo; conditions: Serial 5: preparation 100 g/mu; jinggangmycin 20, metconazole 0 g ai./mu
# powdery mildew fungus = format: in vivo; conditions: seed treatment; dose as in E133
# powdery mildew [2] = format: in vivo; conditions: dose as in E145
# powdery mildew [3] = format: in vivo
# leaf blight [4] = format: in vivo; conditions: dose as in E154
# [5] = design: species or system wheat; conditions: in vivo
# rust [6] = format: in vivo
# wheat scab [7] = format: in vivo, Fusarium spp.; conditions: Serial 5: preparation 100 g/mu; jinggangmycin 20, metconazole 0 g ai./mu
# [8] = tested on: DON toxin biosynthesis of carbendazim-resistant fusarium asiaticum; experiment: microbe, parasite or virus in culture; format: cell-based; conditions: Fusarium asiaticum, read-out: DON Biosynthesis Inhibition Rate
# powdery mildew [9] = format: in vivo; remark: listed apart in the source
# rust [10] = format: in vivo; conditions: dose as in E145
# rust [11] = format: in vivo; remark: listed apart in the source
# leaf blight [12] = format: in vivo; conditions: Serial 5: preparation 100; jinggangmycin 20, metconazole 0 g ai./mu
# Fusarium graminearum = experiment: microbe, parasite or virus in culture; format: cell-based; conditions: for inhibition at 50 µg/mL: Fusarium graminearum; for Average Fungal Colony Diameter F.g: sensitive strains
# leaf blight [13] = format: in vivo
# [14] = format: in vivo, wheat
# rust [15] = format: in vivo; conditions: dose as in E154
# [16] = format: in vivo, wheat; remark: listed apart in the source
# wheat scab [17] = format: in vivo, Fusarium spp.
# powdery mildew [18] = format: in vivo; conditions: Serial 5: preparation 100; jinggangmycin 20, metconazole 0 g ai./mu
# rust [19] = format: in vivo; conditions: Serial 5: preparation 100; jinggangmycin 20, metconazole 0 g ai./mu
# wheat scab [20] = format: in vivo, Fusarium spp.; remark: listed apart in the source
# leaf blight [21] = format: in vivo; remark: listed apart in the source
# leaf blight [22] = format: in vivo; remark: listed apart in the source
# Fusarium asiaticum = experiment: microbe, parasite or virus in culture; format: cell-based
# rust [23] = format: in vivo; conditions: Serial 5: preparation 100 g/mu; jinggangmycin 20, metconazole 0 g ai./mu
# [24] = design: species or system wheat; conditions: in vivo; remark: listed apart in the source
# powdery mildew [25] = format: in vivo; remark: listed apart in the source
# [26] = Serial 11: jinggangmycin 36 g ai./mu alone
# [27] = Serial 12: jinggangmycin 18 g ai./mu alone
# [28] = Serial 13: jinggangmycin 15 g ai./mu alone
# [29] = Serial 14: jinggangmycin 7.5 g ai./mu alone
# [30] = Serial 15: jinggangmycin 5 g ai./mu alone
# [31] = Serial 16: jinggangmycin 2.5 g ai./mu alone
# [32] = Serial 17: jinggangmycin 3 g ai./mu alone
# [33] = Serial 18: jinggangmycin 1.5 g ai./mu alone
# [34] = Serial 19: jinggangmycin 1 g ai./mu alone
# [35] = Serial 20: jinggangmycin 0.5 g ai./mu alone
# [36] = Serial 5: preparation 50 g/mu, jinggangmycin 10 g ai./mu alone
# [37] = Serial 6: preparation 37.5 g/mu, jinggangmycin 7.5 g ai./mu alone
# [38] = Serial 7: preparation 15 g/mu, jinggangmycin 3 g ai./mu alone
# [39] = Serial 5: preparation 75 g/mu, jinggangmycin 15 g ai./mu alone
# [40] = Serial 6: preparation 60 g/mu, jinggangmycin 12 g ai./mu alone
# [41] = Serial 7: preparation 45 g/mu, jinggangmycin 9 g ai./mu alone
# [42] = Serial 8: preparation 30 g/mu, jinggangmycin 6 g ai./mu alone
# [43] = Serial 5: preparation 100 g/mu, jinggangmycin 20 g ai./mu alone
# [44] = Serial 6: preparation 80 g/mu, jinggangmycin 16 g ai./mu alone
# [45] = Serial 7: preparation 40 g/mu, jinggangmycin 8 g ai./mu alone
# [46] = Serial 8: preparation 20 g/mu, jinggangmycin 4 g ai./mu alone
smiles,measurement,setting,value
"OCC1=C[C@H](NC2C[C@H](CO)[C@@H](OC3O[C@H](CO)[C@@H](O)[C@H](O)[C@H]3O)[C@H](O)[C@H]2O)[C@H](O)[C@@H](O)[C@@H]1O (stereo partly drawn) [Jinggangmycin A, jinggangmycin A]",Disease Index Prevention Effect % Leaf Blight,leaf blight [1],7.8%
same,Incidence Prevention Effect % Powdery Mildew,powdery mildew fungus,0% and 6.5%
same,Disease Index Prevention Effect % Powdery Mildew,powdery mildew [2],7.5% and 4.5% and 0%
same,Disease Index Prevention Effect % Powdery Mildew,powdery mildew [3]; [26],8.5%
same,Disease Index Prevention Effect % Powdery Mildew,powdery mildew [3]; [27],7.8%
same,Disease Index Prevention Effect % Powdery Mildew,powdery mildew [3]; [28],7.6%
same,Disease Index Prevention Effect % Powdery Mildew,powdery mildew [3]; [29],0%
same,Disease Index Prevention Effect % Powdery Mildew,powdery mildew [3]; [30],0%
same,Disease Index Prevention Effect % Powdery Mildew,powdery mildew [3]; [31],0%
same,Disease Index Prevention Effect % Powdery Mildew,powdery mildew [3]; [32],0%
same,Disease Index Prevention Effect % Powdery Mildew,powdery mildew [3]; [33],0%
same,Disease Index Prevention Effect % Powdery Mildew,powdery mildew [3]; [34],0%
same,Disease Index Prevention Effect % Powdery Mildew,powdery mildew [3]; [35],0%
same,Disease Index Prevention Effect % Leaf Blight,leaf blight [4],0% and 6.9%
same,Thousand Kernel Weight,[5],39.6 g and 39.0 g and 37.9 g
same,Disease Index Prevention Effect % Rust,rust [6]; [36],6.8%
same,Disease Index Prevention Effect % Rust,rust [6]; [37],6.5%
same,Disease Index Prevention Effect % Rust,rust [6]; [38],0%
same,Disease Index Prevention Effect % Head Blight,wheat scab [7],40.2%
same,inhibition at 1 µg/mL,[8]; 168 h,28.6%
same,inhibition at 10 µg/mL,[8]; 168 h,35.5%
same,inhibition at 100 µg/mL,[8]; 168 h,45.2%
same,inhibition at 1000 µg/mL,[8]; 168 h,65.5%
same,inhibition at 10000 µg/mL,[8]; 168 h,75.9%
same,inhibition at 1 µg/mL,[8]; 336 h,1.7%
same,inhibition at 10 µg/mL,[8]; 336 h,7.87%
same,inhibition at 100 µg/mL,[8]; 336 h,29.9%
same,inhibition at 1000 µg/mL,[8]; 336 h,57%
same,inhibition at 10000 µg/mL,[8]; 336 h,75.4%
same,Disease Index Prevention Effect % Powdery Mildew,powdery mildew [9]; [36],12.6%
same,Disease Index Prevention Effect % Powdery Mildew,powdery mildew [9]; [37],11.9%
same,Disease Index Prevention Effect % Powdery Mildew,powdery mildew [9]; [38],0%
same,Disease Index Prevention Effect % Rust,rust [10],4.9% and 3.8% and 0%
same,Disease Index Prevention Effect % Rust,rust [11]; [26],7.6%
same,Disease Index Prevention Effect % Rust,rust [11]; [27],7.2%
same,Disease Index Prevention Effect % Rust,rust [11]; [28],7.2%
same,Disease Index Prevention Effect % Rust,rust [11]; [29],0%
same,Disease Index Prevention Effect % Rust,rust [11]; [30],0%
same,Disease Index Prevention Effect % Rust,rust [11]; [31],0%
same,Disease Index Prevention Effect % Rust,rust [11]; [32],0%
same,Disease Index Prevention Effect % Rust,rust [11]; [33],0%
same,Disease Index Prevention Effect % Rust,rust [11]; [34],0%
same,Disease Index Prevention Effect % Rust,rust [11]; [35],0%
same,Disease Index Prevention Effect % Leaf Blight,leaf blight [12],7.8%
same,inhibition at 50 µg/mL,Fusarium graminearum; read-out: Growth Inhibition Rate F.g,6.5%
same,inhibition at 50 µg/mL,Fusarium graminearum; read-out: inhibitory effect on the growth of the two types of fusaria,6.5 to 7.8%
same,Average Fungal Colony Diameter F.g,Fusarium graminearum; Jinggangmycin A 0.1 μg/mL,76.3 mm
same,Average Fungal Colony Diameter F.g,Fusarium graminearum; Jinggangmycin A 1.0 μg/mL,76.2 mm
same,Average Fungal Colony Diameter F.g,Fusarium graminearum; Jinggangmycin A 10.0 μg/mL,75.4 mm
same,Average Fungal Colony Diameter F.g,Fusarium graminearum; Jinggangmycin A 50.0 μg/mL,70.3 mm
same,Disease Index Prevention Effect % Leaf Blight,leaf blight [13]; [36],8.6%
same,Disease Index Prevention Effect % Leaf Blight,leaf blight [13]; [37],8.8%
same,Disease Index Prevention Effect % Leaf Blight,leaf blight [13]; [38],5.8%
same,Grain Toxin Content mg of DON/kg of grain,[14]; [39],2.86 mg of DON/kg of grain
same,Toxin Reduction Percentage %,[14]; [39],36.7%
same,Grain Toxin Content mg of DON/kg of grain,[14]; [40],3.82 mg of DON/kg of grain
same,Toxin Reduction Percentage %,[14]; [40],15.5%
same,Grain Toxin Content mg of DON/kg of grain,[14]; [41],4.02 mg of DON/kg of grain
same,Toxin Reduction Percentage %,[14]; [41],11.1%
same,Grain Toxin Content mg of DON/kg of grain,[14]; [42],4.14 mg of DON/kg of grain
same,Toxin Reduction Percentage %,[14]; [42],8.4%
same,Disease Index Prevention Effect % Rust,rust [15],0%
same,Grain Toxin Content (mg of DON/Kg of grain),[16]; [26],2.61 mg of DON/Kg of grain
same,Rate of Decrease in Toxin Content in Grains (%),[16]; [26],59.6%
same,Grain Toxin Content (mg of DON/Kg of grain),[16]; [27],2.86 mg of DON/Kg of grain
same,Rate of Decrease in Toxin Content in Grains (%),[16]; [27],55.7%
same,Grain Toxin Content (mg of DON/Kg of grain),[16]; [28],2.94 mg of DON/Kg of grain
same,Rate of Decrease in Toxin Content in Grains (%),[16]; [28],54.5%
same,Grain Toxin Content (mg of DON/Kg of grain),[16]; [29],3.42 mg of DON/Kg of grain
same,Rate of Decrease in Toxin Content in Grains (%),[16]; [29],47.1%
same,Grain Toxin Content (mg of DON/Kg of grain),[16]; [30],3.86 mg of DON/Kg of grain
same,Rate of Decrease in Toxin Content in Grains (%),[16]; [30],40.2%
same,Grain Toxin Content (mg of DON/Kg of grain),[16]; [31],3.92 mg of DON/Kg of grain
same,Rate of Decrease in Toxin Content in Grains (%),[16]; [31],39.3%
same,Grain Toxin Content (mg of DON/Kg of grain),[16]; [32],3.96 mg of DON/Kg of grain
same,Rate of Decrease in Toxin Content in Grains (%),[16]; [32],38.7%
same,Grain Toxin Content (mg of DON/Kg of grain),[16]; [33],4.82 mg of DON/Kg of grain
same,Rate of Decrease in Toxin Content in Grains (%),[16]; [33],25.4%
same,Grain Toxin Content (mg of DON/Kg of grain),[16]; [34],5.80 mg of DON/Kg of grain
same,Rate of Decrease in Toxin Content in Grains (%),[16]; [34],10.2%
same,Grain Toxin Content (mg of DON/Kg of grain),[16]; [35],5.86 mg of DON/Kg of grain
same,Rate of Decrease in Toxin Content in Grains (%),[16]; [35],9.3%
same,Disease Index Prevention Effect % Head Blight,wheat scab [17]; [43],32.0%
same,Disease Index Prevention Effect % Head Blight,wheat scab [17]; [44],25.4%
same,Disease Index Prevention Effect % Head Blight,wheat scab [17]; [45],14.7%
same,Disease Index Prevention Effect % Head Blight,wheat scab [17]; [46],0%
same,Disease Index Prevention Effect % Powdery Mildew,powdery mildew [18],10.6%
same,Disease Index Prevention Effect % Rust,rust [19],6.5%
same,Disease Index Prevention Effect % Head Blight,wheat scab [20]; [26],31.6%
same,Disease Index Prevention Effect % Head Blight,wheat scab [20]; [27],28.9%
same,Disease Index Prevention Effect % Head Blight,wheat scab [20]; [28],24.3%
same,Disease Index Prevention Effect % Head Blight,wheat scab [20]; [29],16.9%
same,Disease Index Prevention Effect % Head Blight,wheat scab [20]; [30],5.2%
same,Disease Index Prevention Effect % Head Blight,wheat scab [20]; [31],0%
same,Disease Index Prevention Effect % Head Blight,wheat scab [20]; [32],0%
same,Disease Index Prevention Effect % Head Blight,wheat scab [20]; [33],0%
same,Disease Index Prevention Effect % Head Blight,wheat scab [20]; [34],0%
same,Disease Index Prevention Effect % Head Blight,wheat scab [20]; [35],0%
same,Disease Index Prevention Effect % Leaf Blight,leaf blight [21]; [26],5.8%
same,Disease Index Prevention Effect % Leaf Blight,leaf blight [21]; [27],5.0%
same,Disease Index Prevention Effect % Leaf Blight,leaf blight [21]; [28],4.6%
same,Disease Index Prevention Effect % Leaf Blight,leaf blight [21]; [29],0%
same,Disease Index Prevention Effect % Leaf Blight,leaf blight [21]; [30],0%
same,Disease Index Prevention Effect % Leaf Blight,leaf blight [21]; [31],0%
same,Disease Index Prevention Effect % Leaf Blight,leaf blight [21]; [32],0%
same,Disease Index Prevention Effect % Leaf Blight,leaf blight [21]; [33],0%
same,Disease Index Prevention Effect % Leaf Blight,leaf blight [21]; [34],0%
same,Disease Index Prevention Effect % Leaf Blight,leaf blight [21]; [35],0%
same,Disease Index Prevention Effect % Leaf Blight,leaf blight [22]; [43],8.6%
same,Disease Index Prevention Effect % Leaf Blight,leaf blight [22]; [44],8.8%
same,Disease Index Prevention Effect % Leaf Blight,leaf blight [22]; [45],5.8%
same,Disease Index Prevention Effect % Leaf Blight,leaf blight [22]; [46],0%
same,Average Fungal Colony Diameter F.a,Fusarium asiaticum,76.3 mm and 75.6 mm and 69.4 mm
same,inhibition at 50 µg/mL,"Fusarium asiaticum; Fusarium asiaticum, read-out: Growth Inhibition Rate F.a",7.8%
same,Disease Index Prevention Effect % Rust,rust [23],6.5%
same,Thousand Kernel Weight,[24],43.2 g and 42.8 g and 42.9 g and 42.6 g and 42.0 g and 39.6 g
same,Disease Index Prevention Effect % Powdery Mildew,powdery mildew [25]; [43],12.6%
same,Disease Index Prevention Effect % Powdery Mildew,powdery mildew [25]; [44],11.9%
same,Disease Index Prevention Effect % Powdery Mildew,powdery mildew [25]; [45],0%
same,Disease Index Prevention Effect % Powdery Mildew,powdery mildew [25]; [46],0%
